Results taken from ChEMBL document CHEMBL1149465, “Identification of isoflavone derivatives as effective anticryptosporidial agents in vitro and in vivo” (J Med Chem, 2006).

Tests used:
Cryptosporidium parvum = experiment: Antiparasitic activity against Cryptosporidium parvum in HCT8 cells; format: functional, organism-based; conditions: HCT-8
Plasmodium falciparum = experiment: Antiparasitic activity against Plasmodium falciparum T9-96 infected […] cells; format: functional, organism-based
Trichomonas vaginalis = experiment: Antiparasitic activity against Trichomonas vaginalis in […] cells; format: functional, organism-based; conditions: UCH-1
Meriones unguiculatus [1] = experiment: Deparasitization of Cryptosporidium parvum infected gerbils treated with 200 mg/kg at day 8; format: functional
Meriones unguiculatus [2] = experiment: Deparasitization of Cryptosporidium parvum infected gerbils treated with 400 mg/kg at day 8; format: functional
Meriones unguiculatus [3] = experiment: Reduction of oocyst in stools of Cryptosporidium parvum infected gerbils treated with 200 mg/kg at day 8; format: functional; set-up: scale not given: the % may be the effect or the level left
Meriones unguiculatus [4] = experiment: Reduction of oocyst in stools of Cryptosporidium parvum infected gerbils treated with 400 mg/kg at day 8; format: functional; set-up: scale not given: the % may be the effect or the level left
Meriones unguiculatus [5] = experiment: Deparasitization of Cryptosporidium parvum infected gerbils treated with 400 mg/kg at day 12; format: functional
Meriones unguiculatus [6] = experiment: Reduction of oocyst in stools of Cryptosporidium parvum infected gerbils treated with 400 mg/kg at day 12; format: functional; set-up: scale not given: the % may be the effect or the level left
Meriones unguiculatus [7] = experiment: Deparasitization of Cryptosporidium parvum infected gerbils treated with 100 mg/kg at day 8; format: functional
Meriones unguiculatus [8] = experiment: Reduction of oocyst in stools of Cryptosporidium parvum infected gerbils treated with 100 mg/kg at day 8; format: functional; set-up: scale not given: the % may be the effect or the level left

SMILES	IC50 (Cryptosporidium parvum)	also measured
O=C(Cc1cccc(Br)c1)c1c(O)cc(O)cc1O	17.2 µM	
O=c1c(-c2cccc(Br)c2)coc2cc(O)cc(O)c12	0.4 µM	
O=c1c(-c2ccc(Br)cc2)coc2cc(O)cc(O)c12	1.3 µM	
O=c1c(-c2ccc([N+](=O)[O-])cc2)coc2cc(O)cc(O)c12	1.8 µM	IC50 (Plasmodium falciparum): 20 µM; IC50 (Trichomonas vaginalis): 8 µM
O=c1c(-c2cccc([N+](=O)[O-])c2)coc2cc(O)cc(O)c12	0.3 µM	
O=C(Cc1cccc([N+](=O)[O-])c1)c1c(O)cc(O)cc1O	464 µM	
CCOC(=O)c1oc2cc(O)cc(O)c2c(=O)c1-c1cccc(Br)c1	1.6 µM	Activity (Meriones unguiculatus [1]): 60%; Activity (Meriones unguiculatus [2]): 60%; Activity (Meriones unguiculatus [3]): 90.5%; Activity (Meriones unguiculatus [4]): 92%
CC(=O)Oc1ccccc1C(=O)Nc1ncc([N+](=O)[O-])s1 [NITAZOXANIDE]	3.25 µM	Activity (Meriones unguiculatus [1]): 14%; Activity (Meriones unguiculatus [3]): 55%
O=C(Cc1ccc(Br)cc1)c1c(O)cc(O)cc1O	15.9 µM	
CCOC(=O)c1oc2cc(O)cc(O)c2c(=O)c1-c1ccc(Br)cc1	0.6 µM	Activity (Meriones unguiculatus [5]): 13%; Activity (Meriones unguiculatus [4]): 53.5%; Activity (Meriones unguiculatus [6]): 67%
O=C1c2c(O)cc(O)cc2OCC1c1ccc([N+](=O)[O-])cc1 (stereo not drawn)	11.7 µM	
NC[C@@H]1O[C@H](O[C@H]2[C@@H](O)[C@H](O[C@@H]3[C@@H](O)[C@H](N)C[C@H](N)[C@H]3O[C@H]3O[C@H](CO)[C@@H](O)[C@H](O)[C@H]3N)O[C@@H]2CO)[C@H](N)[C@@H](O)[C@@H]1O [PAROMOMYCIN]		Activity (Meriones unguiculatus [7]): 14%; Activity (Meriones unguiculatus [8]): 17.6%
CCOC(=O)c1oc2cc(O)cc(O)c2c(=O)c1-c1cccc([N+](=O)[O-])c1	15.8 µM	
O=C(O)c1oc2cc(O)cc(O)c2c(=O)c1-c1cccc(Br)c1	20.1 µM	
O=C(Cc1ccc([N+](=O)[O-])cc1)c1c(O)cc(O)cc1O	70.8 µM	
CCOC(=O)c1oc2cc(O)cc(O)c2c(=O)c1-c1ccc([N+](=O)[O-])cc1	64.1 µM	
